Measurements: paper PMC6272238, “Synthesis and Pharmacophore Modelling of 2,6,9-Trisubstituted Purine Derivatives and Their Potential Role as Apoptosis-Inducing Agents in Cancer Cell Lines” (Molecules, 2015)

Assays:
[1] = test system: HTC116 cells; test: Apoptosis/viability assay by FACS with propidium iodide, HTC116; type: cell-based, human; settings: HTC116, 50 µM, 16 h, PI staining
Description: (§1) To evaluate sensitivity to 4f, 4j and 4k, Vero, HTC116, H1975 and Hela were treated with concentrations of 50 µM for 16 h. Fifty µM etoposide was used as positive control. As it can be seen in Figure 5, 4f, 4j and 4k induced apoptosis as a prevalent type of cell death, in high percentages (>70%), in every cancer cell line. Moreover, 4f, 4j, and 4k induced an apoptotic cell response greater than etoposide.
(§2) Cell viability was analyzed by FACS as previously described. In this assay, after setting the baseline to exclude cell debris, cells impermeable to propidium iodide (PI negative) are considered as viable. Two populations of PI-permeable dead cells are distinguished based on fluorescence intensity, corresponding to either hypodiploid apoptotic cells or necrotic cells with intact DNA. Here, H1975, HTC116, and HeLa cells were incubated with concentrations of 50 µM of each compound for 16 h at 37 °C. Cells were harvested and stained with 10 µg/mL of propidium iodide to determine cell viability. Samples containing roughly 1 × 10^4 cells were evaluated by flow cytometry (FACScanto II; Becton Dickinson, Mountain View, CA, USA) and analyzed using the software program FCS Express v5.

[2] = test system: HL-60 (leukemia) cells; test: MTT cytotoxicity assay on HL-60 cells; type: cell-based, human; settings: Homo sapiens, HL-60, 72 h, 72 h continuous exposure, triplicate, range 0.05 to 50 µM
Description: (§3) The potential in vitro antitumor activity of compounds 4a–l was initially tested for their cytotoxic effects on H1975, HL-60, HCT116 and HeLa cancer cell lines and Vero cells. […]
(§4) Cancer cell lines were grown at 37 °C in humidified atmosphere and 5% CO2. H1975, HL60, HTC116 and Vero cells were grown in RPMI 1640 culture medium supplemented with 10% fetal bovine serum and (100 UI/mL) penicillin-streptomicyn. HeLa cells were grown in EMEM culture medium, supplemented with 10% fetal bovine serum and (100 UI/mL) penicillin-streptomicyn.
(§5) Cytotoxicity assays were performed by using the MTT reduction method as described previously. Briefly, cancer cell lines were plated in a flat-bottom 96-wells plate at 10,000 cells per well density. […] Ten µL of MTT was added at a final concentration of 0.5 mg/mL, incubated at 37 °C for 4 h, and then solubilized with 10% sodium dodecyl sulfate (SDS) in 0.1 mM HCl and incubated overnight at 37 °C. Formazan formation was measured at 570 nm in a multiwell reader (StatFax 4200, Awareness Technology, Inc. Palm City, FL, USA).
(§6) Values are expressed as means ± standard deviations from three independent experiments. IC50 values, (Compound concentration necessary to decrease at 50% the MTT reduction) and the two-way analysis of variance (ANOVA) test were performed when necessary with Prism GraphPad 6.0f software (GraphPad Software Inc., San Diego, CA, USA).

[3] = test system: Vero cells; test: MTT cytotoxicity assay on Vero cells; type: cell-based; settings: Chlorocebus sabaeus, 72 h continuous exposure, triplicate, range 0.05 to 50 µM
[4] = test system: HCT116 (colorectal) cells; test: MTT cytotoxicity assay on HCT116 cells; type: cell-based, human; settings: for IC50: Homo sapiens, HCT-116, 72 h, MTT, 72 h continuous exposure, triplicate, range 0.05 to 50 µM; for Selectivity Index (SI) (Vero/HCT116): ratio IC50 (Vero)/IC50 (HCT116)
Description: as §3, §4, §5, §6

[5] = test system: HeLa cells; test: Apoptosis/viability assay by FACS with propidium iodide, HeLa; type: cell-based, human; settings: 50 µM, 16 h, PI staining
Description: as §1, §2

[6] = test system: HeLa cells; test: MTT cytotoxicity assay on HeLa cells; type: cell-based, human; settings: for IC50: Homo sapiens, HeLa, 72 h, MTT, 72 h continuous exposure, triplicate, range 0.05 to 50 µM; for Selectivity Index (SI) (Vero/HeLa): ratio IC50 (Vero)/IC50 (HeLa)
Description: as §3, §4, §5, §6

[7] = test system: H1975 cells; test: Apoptosis/viability assay by FACS with propidium iodide, H1975; type: cell-based, human; settings: H1975, 50 µM, 16 h, PI staining
Description: as §1, §2

[8] = test system: H1975 (lung) cells; test: MTT cytotoxicity assay on H1975 cells; type: cell-based, human; settings: for IC50: Homo sapiens, NCI-H1975, 72 h, MTT, 72 h continuous exposure, triplicate, range 0.05 to 50 µM; for Selectivity Index (SI) (Vero/H1975): ratio IC50 (Vero)/IC50 (H1975)
Description: as §3, §4, §5, §6

| Compound | apoptosis (percentage of cells) [1] [%] | IC50 [2] [µM] | IC50 [3] [µM] | IC50 [4] [µM] | Selectivity Index (SI) (Vero/HCT116) [4] | apoptosis (percentage of cells) [5] [%] | IC50 [6] [µM] | Selectivity Index (SI) (Vero/HeLa) [6] | apoptosis (percentage of cells) [7] [%] | IC50 [8] [µM] | Selectivity Index (SI) (Vero/H1975) [8] | melting point [°C] |
| --- | --- | --- | --- | --- | --- | --- | --- | --- | --- | --- | --- | --- |
| CCCCCn1cnc2c(NCc3ccc(OC)cc3)nc(NCc3ccccc3)nc21 [Compound 4j, N^2-Benzyl-N^6-(4-methoxybenzyl)-9-pentyl-9H-purine-2,6-diamine] | > 70 | > 50 | 26 ± 0.18 | 8 ± 0.21 | 3.25 | > 70 | 9.5 ± 0.14 | 2.74 | > 70 | 2.3 ± 0.13 | 11.30 |  |
| CCCCCn1cnc2c(NCc3ccccc3)nc(NCc3ccccc3)nc21 [Compound 4d, N^2,N^6-Dibenzyl-9-pentyl-9H-purine-2,6-diamine] |  | > 50 | 2.5 ± 0.2 | 11 ± 0.11 | 0.23 |  | 10.1 ± 0.14 | 0.25 |  | 12 ± 0.19 | 0.21 | 83 to 86 |
| CCCCCCn1cnc2c(NCc3ccc(OC)cc3)nc(NCc3ccccc3)nc21 [Compound 4l, N^2-Benzyl-9-hexyl-N^6-(4-methoxybenzyl)-9H-purine-2,6-diamine] |  | > 50 | 15 ± 0.06 | 6.8 ± 0.14 |  |  | 9 ± 0.13 |  |  | > 50 |  |  |
| CCCCn1cnc2c(NCc3ccccc3)nc(NCc3ccccc3)nc21 [Compound 4b, N^2,N^6-Dibenzyl-9-butyl-9H-purine-2,6-diamine] |  | > 50 | 5.6 ± 0.15 | 7.2 ± 0.16 | 0.78 |  | 18 ± 0.14 | 0.31 |  | 28 ± 0.08 | 0.20 | 113 to 115 |
| CCCCCCn1cnc2c(NCc3ccccc3)nc(NCc3ccccc3)nc21 [Compound 4f, N^2,N^6-Dibenzyl-9-hexyl-9H-purine-2,6-diamine] | > 70 | > 50 | 26 ± 0.12 | 3 ± 0.12 | 8.67 | > 70 | 5.3 ± 0.13 | 4.91 | > 70 | 9.9 ± 0.18 | 2.63 |  |
| COc1cc([C@@H]2c3cc4c(cc3[C@@H](O[C@@H]3O[C@@H]5CO[C@@H](C)O[C@H]5[C@H](O)[C@H]3O)[C@H]3COC(=O)[C@H]23)OCO4)cc(OC)c1O [Etoposide, reference compound] |  | 6.2 ± 0.18 | > 25 | 2.8 ± 0.24 |  |  | 8.2 ± 0.33 |  |  | 8 ± 0.33 |  |  |
